Key:
E. coli IH3080 (K1:O18) = assay: Well diffusion growth inhibition on LB agar plates (direct antibacterial activity); type: cell-based, Escherichia coli
Procedure: Peptides synthesized in Example 1, all carrying at least two (2) but not more than three (3) positive charges, were studied for their ability to inhibit the growth of E. coli. This was tested employing LB agar (LB Agar Lennox, Difco, BD, Sparks, Md., U.S.A) plates. The indicator organism E. coli IH3080 (K1:O18) was an encapsulated strain originally isolated from a neonate suffering from meningitis (Vaara et al. 1984) and obtained from National Public Health Institute, Helsinki, Finland.
(§1) From an overnight-grown culture of IH3080 on LB agar, a suspension of approx. 10^8 cells/ml was prepared in 0.9% NaCl. Aliquots of this suspension were then pipetted on the agar plates and the plates were gently shaken to spread the suspension evenly on the entire surface of the plate. Thereafter, the unabsorbed part of the suspension was removed by using a Pasteur pipette. After the surface had dried, small wells (diameter, 2 mm) were drilled on the plates (five wells per plate) by using a sterile sharp-edged narrow metal tube, single-use pipette tip, and vacuum suction. […] Controls included 0.9% NaCl solution without the compound to be tested. The plates were then incubated for 18 h at 37° C. whereafter the diameters of growth inhibition zones around each well were measured; the diameter of the well itself was not reduced. Finally, the diameters were converted to surface areas of growth inhibition (in square mm).

[1] = tested on: Acinetobacter baumannii ATCC 19606; assay: as above; type: cell-based; settings: A. baumannii ATCC 19606
Procedure: (§2) From an overnight-grown culture of IH3080 on LB agar, a suspension of approx. 10^8 cells/ml was prepared in 0.9% NaCl. Aliquots of this suspension were then pipetted on the agar plates and the plates were gently shaken to spread the suspension evenly on the entire surface of the plate. Thereafter, the unabsorbed part of the suspension was removed by using a Pasteur pipette. After the surface had dried, small wells (diameter, 2 mm) were drilled on the plates (five wells per plate) by using a sterile sharp-edged narrow metal tube, single-use pipette tip, and vacuum suction. Samples (4 μl and 10 μl) of the peptide solution in 0.9% NaCl (at concentrations of 1 μg/ml and 0.1 μg/ml) were then pipetted to the wells and the sample fluids were allowed to absorb. Controls included 0.9% NaCl solution without the compound to be tested. The plates were then incubated for 18 h at 37° C. whereafter the diameters of growth inhibition zones around each well were measured; the diameter of the well itself was not reduced. Finally, the diameters were converted to surface areas of growth inhibition (in square mm).
(§3) Direct antibacterial activity of twelve NAB compounds against Acinetobacter baumannii ATCC 19606 and Pseudomonas aeruginosa ATCC 27853 was tested by using the susceptibility determination method described in Example 2. Five compounds (NAB7062, NAB734, NAB737, NAB739, and NAB740) had notable activity against A. baumannii. […] The antibacterial activity of NAB739 and NAB740 were as strong as or even stronger than that of polymyxin B.

[2] = tested on: Pseudomonas aeruginosa ATCC 27853; assay: as above; type: cell-based; settings: Ps. aeruginosa ATCC 27853
Procedure: as §2, §3

[3] = tested on: Ps. aeruginosa ATCC 27853; assay: Sensitization to rifampin: well diffusion growth inhibition on LB plates containing rifampin; type: cell-based, Pseudomonas aeruginosa; settings: 4 μg of compound
E. coli IH3080 = assay: as above; type: cell-based, Escherichia coli; settings: 4 μg of compound
Procedure: as §1

A. baumannii ATCC 19606 = assay: as above; type: cell-based, Acinetobacter baumannii; settings: 4 μg of compound

| Substance | Antibacterial activity (growth inhibition area around a well) (E. coli IH3080 (K1:O18); 4 μg of compound per well) | Antibacterial activity (growth inhibition area around a well) (E. coli IH3080 (K1:O18); 10 μg of compound per well) | Antibacterial activity (growth inhibition area around a well) ([1]; 4 μg per well) | Antibacterial activity (growth inhibition area around a well) ([1]; 10 μg per well) | Antibacterial activity (growth inhibition area around a well) ([2]; 4 μg per well) | Antibacterial activity (growth inhibition area around a well) ([2]; 10 μg per well) | Antibacterial activity in the presence of rifampin (growth inhibition area around a well) ([3]; rifampin 0 μg/ml) | Antibacterial activity in the presence of rifampin (growth inhibition area around a well) ([3]; rifampin 0.1 μg/ml) | Antibacterial activity in the presence of rifampin (growth inhibition area around a well) ([3]; rifampin 0.3 μg/ml) | Antibacterial activity in the presence of rifampin (growth inhibition area around a well) (E. coli IH3080; rifampin 0 μg/ml) | Antibacterial activity in the presence of rifampin (growth inhibition area around a well) (E. coli IH3080; rifampin 0.1 μg/ml) | Antibacterial activity in the presence of rifampin (growth inhibition area around a well) (E. coli IH3080; rifampin 1.0 μg/ml) | Antibacterial activity in the presence of rifampin (growth inhibition area around a well) (A. baumannii ATCC 19606; rifampin 0 μg/ml) | Antibacterial activity in the presence of rifampin (growth inhibition area around a well) (A. baumannii ATCC 19606; rifampin 0.1 μg/ml) | Antibacterial activity in the presence of rifampin (growth inhibition area around a well) (A. baumannii ATCC 19606; rifampin 0.3 μg/ml) |
| --- | --- | --- | --- | --- | --- | --- | --- | --- | --- | --- | --- | --- | --- | --- | --- |
| OA-Thr-DThr-cy[Dab-Dab-DPhe-Thr-Dab-Dab-Thr-] [NAB 737] | 133 square millimeters | 201 square millimeters | 38 square millimeters | 79 square millimeters | 0 square millimeters | 28 square millimeters | 0 square millimeters | 20 square millimeters | 20 square millimeters | 133 square millimeters | 177 square millimeters | 201 square millimeters | 38 square millimeters | 201 square millimeters | 283 square millimeters |
| OA-Thr-Abu-cy[Dab-Dab-DPhe-Leu-Dab-Dab-Leu-] [NAB 719] | 7 square millimeters | 50 square millimeters | 0 square millimeters | 0 square millimeters | 0 square millimeters | 0 square millimeters | 0 square millimeters | 0 square millimeters | 7 square millimeters | 7 square millimeters | 79 square millimeters | 95 square millimeters | 0 square millimeters | 154 square millimeters | 133 square millimeters |
| Polymyxin B nonapeptide [reference compound] | 0 square millimeters | 0 square millimeters | 0 square millimeters | 0 square millimeters | 113 square millimeters | 177 square millimeters | 113 square millimeters | 113 square millimeters | 154 square millimeters | 0 square millimeters | 20 square millimeters | 113 square millimeters | 0 square millimeters | 133 square millimeters | 154 square millimeters |
| OA-Thr-DAla-cy[Dab-Dab-DPhe-Thr-Dab-Dab-Thr-] [NAB 738] | 0 square millimeters | 64 square millimeters | 0 square millimeters | 0 square millimeters | 0 square millimeters | 0 square millimeters | 0 square millimeters | 13 square millimeters | 13 square millimeters | 0 square millimeters | 133 square millimeters | 177 square millimeters | 0 square millimeters | 95 square millimeters | 154 square millimeters |
| DA-Thr-DSer-cy[Dab-Dab-DPhe-Leu-Dab-Dab-Thr-] [NAB 740] | 95 square millimeters | 133 square millimeters | 133 square millimeters | 201 square millimeters | 64 square millimeters | 133 square millimeters | 64 square millimeters | 64 square millimeters | 64 square millimeters | 95 square millimeters | 95 square millimeters | 95 square millimeters | 133 square millimeters | 154 square millimeters | 154 square millimeters |
| OA-Thr-Dab-cy[Dab-Dab-DPhe-Leu-Dab-Abu-Thr-] [NAB 717] | 0 square millimeters | 0 square millimeters | 0 square millimeters | 0 square millimeters | 0 square millimeters | 0 square millimeters | 0 square millimeters | 0 square millimeters | 0 square millimeters | 0 square millimeters | 71 square millimeters | 95 square millimeters | 0 square millimeters | 0 square millimeters | 50 square millimeters |
